Assay: Copper corrosion rate by linear polarization resistance
Conditions: for No FRC Corrosion Rate (mpy) / 1 ppm FRC Corrosion Rate (mpy): copper coupons, 5 ppm inhibitor, pH 7.0, 45° C.; for No FRC Corrosion Rate (mpy): absence of bleach, average over 20 to 24 hour period; for 1 ppm FRC Corrosion Rate (mpy): bleach maintained at 1 ppm FRC
Description: In addition, the corrosion rate of copper in the presence of benzimidazole, tolyltriazole, imidazole, pyrimidine, 6,6-dimethyladenine, and 6-methylpurine was determined using linear polarization resistance measurements. […] For each experiment, cylindrical copper coupons pre-polished using SIC 600 paper and fitted on a Pine rotator were immersed in a solution of corrosion inhibitor. […] The pH of the test water was maintained at 7.0 using carbon dioxide, and the water temperature was maintained at 45° C. throughout the experiment. […] Density: 8.92 g/cm^3; Copper Eq. Weight: 63.54 g; and Initial delay: 30 seconds. Next, the copper samples were exposed to a 25% bleach solution. […] The Rp in the absence and presence of bleach was collected and analyzed, and the average corrosion rate was calculated and recorded in Table 1. Corrosion rates were calculated in mils per year (mpy).

Row | Molecule | No FRC Corrosion Rate (mpy) | 1 ppm FRC Corrosion Rate (mpy) | change of copper corrosion rate upon the addition of bleach (1 ppm FRC) | No FRC Corrosion Rate (mpy) (listed as adenine) | 1 ppm FRC Corrosion Rate (mpy) (listed as adenine)
1 | Cc1ncnc2nc[nH]c12 [Compound 11, 6-Methylpurine] | 0.74 | 0.44 |  |  | 
2 | c1ccc2[nH]cnc2c1 [Compound 6, Benzimidazole] | 0.0890 | 0.9594 |  |  | 
3 | Oc1ncnc2nc[nH]c12 [Compound 4, Hypoxanthine] | 0.1036 | 0.1684 |  |  | 
4 | Tolyltriazole [Compound 7] | 0.0214 | 0.0995 |  |  | 
5 | Nc1ncnc2nc[nH]c12 [Compound 5, Adenine] | 0.1665 | 0.3571 | observed increase | 0.16 | 0.35
6 | Clc1ncnc2nc[nH]c12 [Compound 3, 6-Chloropurine] | 0.04 | 0.16 |  |  | 
7 | CN(C)c1ncnc2nc[nH]c12 [Compound 10, 6,6-Dimethyladenine] | 0.68 | 0.66 |  |  | 
8 | c1c[nH]cn1 [Compound 8, Imidazole] | 0.69 | 1.1 |  |  | 
9 | c1cncnc1 [Compound 9, Pyrimidine] | 1.2 | 0.79 |  |  | 

From patent publication US10669637B2, “Purine-based corrosion inhibitors” (Ecolab USA Inc., priority 2015, dated 2020)
